Columns and labels:
Test in all cases: Bliss excess, mean over the matrix (fraction); higher = more synergy
[1] = tested on: 22RV1 (Prostate Carcinoma)
Method in brief: (§1)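 After 24 hours at 37°C and 5% CO2 in 1536-well plates, cells in DMEM/F12 or RPMI plus 10% FBS received two-drug dose matrices for 72 hours. Viability came from CellTiter-Glo 2.0 luminescence and was scaled as inhibition, anchored at 0 by vehicle wells and at 1 by blank wells. Combination Emax is taken as the second-highest inhibition in the matrix, and Bliss excess as the observed combination effect less EA + EB − EA·EB, with EA and EB the single-agent effects.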

[2] = tested on: 5637 (Bladder Carcinoma)
Method in brief: as §1

[3] = tested on: A101D (Melanoma)
Method in brief: as §1

[4] = tested on: A253 (Head and Neck Carcinoma)
Method in brief: as §1

[5] = tested on: AU565 (Breast Carcinoma)
Method in brief: as §1

[6] = tested on: CA46 (Burkitt's Lymphoma)
Method in brief: as §1

[7] = tested on: CESS (Acute Myeloid Leukemia)
Method in brief: as §1

[8] = tested on: ESO26 (Esophageal Adenocarcinoma)
Method in brief: as §1

[9] = tested on: EW-16 (Ewing's Sarcoma)
Method in brief: as §1

[10] = tested on: G-402 (Other Solid Carcinomas)
Method in brief: as §1

[11] = tested on: GA-10 (Burkitt's Lymphoma)
Method in brief: as §1

[12] = tested on: GCT (Other Solid Carcinomas)
Method in brief: as §1

[13] = tested on: HCC1395 (Breast Carcinoma)
Method in brief: as §1

[14] = tested on: IM-9 (Non-Cancerous)
Method in brief: as §1

[15] = tested on: JIMT-1 (Breast Carcinoma)
Method in brief: as §1

[16] = tested on: JVM-2 (B-Cell Non-Hodgkin's Lymphoma)
Method in brief: as §1

[17] = tested on: KYSE-140 (Esophageal Squamous Cell Carcinoma)
Method in brief: as §1

[18] = tested on: LS-411N (Colorectal Carcinoma)
Method in brief: as §1

[19] = tested on: MHH-ES-1 (Ewing's Sarcoma)
Method in brief: as §1

[20] = tested on: OACp4C (Esophageal Adenocarcinoma)
Method in brief: as §1

| SMILES | Bliss excess [1] | Bliss excess [2] | Bliss excess [3] | Bliss excess [4] | Bliss excess [5] | Bliss excess [6] | Bliss excess [7] | Bliss excess [8] | Bliss excess [9] | Bliss excess [10] | Bliss excess [11] | Bliss excess [12] | Bliss excess [13] | Bliss excess [14] | Bliss excess [15] | Bliss excess [16] | Bliss excess [17] | Bliss excess [18] | Bliss excess [19] | Bliss excess [20] |
| --- | --- | --- | --- | --- | --- | --- | --- | --- | --- | --- | --- | --- | --- | --- | --- | --- | --- | --- | --- | --- |
| COc1nnc2ccc(N3CCC(c4ccc(OCCN5CCN(C)C(=O)[C@H]5C)cc4)CC3)nn12 [AZD5153] + CCN(CCO)CCCOc1ccc2c(Nc3cc(CC(=O)Nc4cccc(F)c4)[nH]n3)ncnc2c1 [AZD2811] (first compound max 1 µM, 7x7, partner max 1 µM) | -0.0252 | -0.107 | -0.104 | -0.0153 | -0.0016 | -0.0088 | 0.0259 | 0.0002 | 0.0068 | -0.0728 | -0.122 | -0.0201 | -0.0005 | -0.111 | -0.0113 | -0.0498 | -0.0087 | -0.0233 | -0.0345 | -0.062 |
| C[C@@H]1COCCN1c1cc(C2([S@](C)(=N)=O)CC2)nc(-c2ccnc3[nH]ccc23)n1 [AZD6738] + O=C(c1cc(Cc2n[nH]c(=O)c3ccccc23)ccc1F)N1CCN(C(=O)C2CC2)CC1 [Olaparib] (first compound max 10 µM, 7x7, partner max 10 µM) | 0.0117 | -0.0011 | -0.0004 | 0.0371 | 0.005 | 0.0138 | 0.0222 | -0.0081 | 0.0402 | 0.0068 | -0.0726 | -0.0027 | 0.0255 | -0.0255 | -0.0247 | -0.0708 | -0.0971 | -0.105 | 0.0366 | -0.0281 |
| NC1(C(=O)N[C@@H](CCO)c2ccc(Cl)cc2)CCN(c2ncnc3[nH]ccc23)CC1 [Capivasertib] + Cn1cnc2c(F)c(Nc3ccc(Br)cc3Cl)c(C(=O)NOCCO)cc21 [Selumetinib] (first compound max 10 µM, 7x7, partner max 10 µM) | -0.0044 | -0.0187 | 0.0628 | 0.0591 | 0.0183 | 0.0039 | -0.0147 | 0.0818 | 0.0097 | 0.0126 | -0.0442 | -0.0354 | 0.033 | -0.0169 | 0.0449 | 0.0533 | -0.0003 | 0.0005 | 0.0114 | -0.0318 |
| NC1(C(=O)N[C@@H](CCO)c2ccc(Cl)cc2)CCN(c2ncnc3[nH]ccc23)CC1 [Capivasertib] + COc1nnc2ccc(N3CCC(c4ccc(OCCN5CCN(C)C(=O)[C@H]5C)cc4)CC3)nn12 [AZD5153] (first compound max 10 µM, 7x7, partner max 1 µM) | 0.0032 | 0.0035 | 0.0062 | 0.125 | 0.0693 | -0.0183 | 0.0506 | 0.0358 | 0.0283 | -0.02 | -0.0148 | 0.0049 | -0.0381 | -0.0708 | 0.0698 | -0.0764 | 0.0298 | 0.11 | 0.0467 | 0.0153 |
| COc1nnc2ccc(N3CCC(c4ccc(OCCN5CCN(C)C(=O)[C@H]5C)cc4)CC3)nn12 [AZD5153] + C=CCn1c(=O)c2cnc(Nc3ccc(N4CCN(C)CC4)cc3)nc2n1-c1cccc(C(C)(C)O)n1 [AZD1775] (first compound max 1 µM, partner max 1 µM) | 0.0047 | -0.0321 | -0.0825 | -0.0328 | -0.0144 | -0.0572 | -0.0643 | -0.0501 | -0.037 | -0.0226 | -0.0367 | 0.0168 | -0.113 | -0.107 | -0.0054 | -0.0959 | -0.0161 | -0.0334 | -0.0662 | -0.0295 |
| CC1(C)CCC(CN2CCN(c3ccc(C(=O)NS(=O)(=O)c4ccc(NCC5CCOCC5)c([N+](=O)[O-])c4)c(Oc4cnc5[nH]ccc5c4)c3)CC2)=C(c2ccc(Cl)cc2)C1 [Venetoclax] + COc1cc(Nc2ncc3c(n2)-c2ccc(Cl)cc2C(c2c(F)cccc2OC)=NC3)ccc1C(=O)O [Alisertib] (first compound max 1 µM, 7x7, partner max 10 µM) | 0.003 | -0.0313 | 0.077 | 0.0091 | 0.106 | -0.017 | 0.0268 | -0.003 | 0.0541 | -0.0116 | 0.0181 | -0.0365 | -0.0147 | 0.043 | -0.0247 | 0.0333 | 0.0471 | -0.0329 | 0.0931 | 0.0112 |
| CCN(CCO)CCCOc1ccc2c(Nc3cc(CC(=O)Nc4cccc(F)c4)[nH]n3)ncnc2c1 [AZD2811] + C=CCn1c(=O)c2cnc(Nc3ccc(N4CCN(C)CC4)cc3)nc2n1-c1cccc(C(C)(C)O)n1 [AZD1775] (first compound max 1 µM, partner max 1 µM) | -0.0367 | -0.0232 | -0.0166 | 0.0566 | 0.0437 | 0.0165 | 0.0173 | -0.0247 | -0.0134 | -0.0106 | 0.0303 | -0.0211 | -0.0904 | -0.0297 | -0.0159 | 0.0686 | -0.0155 | -0.0174 | 0.0089 | -0.0436 |

Reference: the supplement of paper PMC11061612
